# Measured values as given in patent publication US8536332B2, “Modulating signal transduction pathways with substituted pyridol [2,3-b] pyrazines” (Aeterna Zentaris GmbH, priority 2007, dated 2013).
row,melting point,Compound
1,281 °C,"CCNC(=O)Nc1ccc2ncc(Nc3ccc(OC)c(O)c3)nc2n1 [Compound 156, 1-Ethyl-3-[3-(3-hydroxy-4-methoxy-phenylamino)-pyrido[2,3-b]pyrazin-6-yl]-urea]"
2,265 °C,"CCNC(=S)Nc1ccc2ncc(Nc3cc(OC)cc(OC)c3)nc2n1 [Compound 157, 1-[3-(3,5-Dimethoxy-phenylamino)-pyrido[2,3-b]pyrazin-6-yl]-3-ethyl-thiourea]"
3,276 °C,"CCNC(=S)Nc1ccc2ncc(Nc3ccc(OC)c(Cl)c3)nc2n1 [Compound 159, 1-[3-(3-Chloro-4-methoxy-phenylamino)-pyrido[2,3-b]pyrazin-6-yl]-3-ethyl-thiourea]"
4,262 °C,"CCNC(=S)Nc1ccc2ncc(Nc3ccc(O)cc3)nc2n1 [Compound 161, 1-Ethyl-3-[3-(4-hydroxy-phenylamino)-pyrido[2,3-b]pyrazin-6-yl]-thiourea]"
5,288 °C,"CCNC(=S)Nc1ccc2ncc(Nc3ccc(C)c(OC)c3)nc2n1 [Compound 162, 1-Ethyl-3-[3-(3-methoxy-4-methyl-phenylamino)-pyrido[2,3-b]pyrazin-6-yl]-thiourea]"
6,238 °C,"CCNC(=S)Nc1ccc2ncc(Nc3cccc(OC(C)C)c3)nc2n1 [Compound 163, 1-Ethyl-3-[3-(3-isopropoxy-phenylamino)-pyrido[2,3-b]pyrazin-6-yl]-thiourea]"
7,294 °C,"CCNC(=S)Nc1ccc2ncc(Nc3ccc(-n4cncn4)cc3)nc2n1 [Compound 164, 1-Ethyl-3-[3-(4-[1,2,4]triazol-1-yl-phenylamino)-pyrido[2,3-b]pyrazin-6-yl]-thiourea]"
8,268 °C,"CCNC(=S)Nc1ccc2ncc(Nc3ccc(C)c(NS(C)(=O)=O)c3)nc2n1 [Compound 165, N-{5-[6-(3-Ethyl-thioureido)-pyrido[2,3-b]pyrazin-3-ylamino]-2-methyl-phenyl}-methanesulfonamide]"
9,278 °C,"CCNC(=S)Nc1ccc2ncc(Nc3cc(Cl)c(O)c(Cl)c3)nc2n1 [Compound 166, 1-[3-(3,5-Dichloro-4-hydroxy-phenylamino)-pyrido[2,3-b]pyrazin-6-yl]-3-ethyl-thiourea]"
10,253 °C,"CCNC(=O)Nc1ccc2ncc(Nc3cccc(Cl)c3)nc2n1 [Compound 167, 1-[3-(3-Chloro-phenylamino)-pyrido[2,3-b]pyrazin-6-yl]-3-ethyl-urea]"
11,289 °C,"CCNC(=S)Nc1ccc2ncc(Nc3ccc4ccccc4c3)nc2n1 [Compound 168, 1-Ethyl-3-[3-(naphthalen-2-ylamino)-pyrido[2,3-b]pyrazin-6-yl]-thiourea]"
12,228 °C,"CCNC(=O)Nc1ccc2ncc(Nc3ccc(N(C)C)cc3)nc2n1 [Compound 169, 1-[3-(4-Dimethylamino-phenylamino)-pyrido[2,3-b]pyrazin-6-yl]-3-ethyl-urea]"
13,243 °C,"CCNC(=O)Nc1ccc2ncc(Nc3cccc(C(C)=O)c3)nc2n1 [Compound 170, 1-[3-(3-Acetyl-phenylamino)-pyrido[2,3-b]pyrazin-6-yl]-3-ethyl-urea]"
14,242 to 244 °C,"CNC(=O)Nc1cnc2ccc(-c3ccc(O)c(OC)c3)nc2n1 [Compound 172, 1-[6-(4-Hydroxy-3-methoxy-phenyl)-pyrido[2,3-b]pyrazin-3-yl]-3-methyl-urea]"
15,234 to 237 °C,"CCNC(=O)Nc1cnc2ccc(-c3cccc(OC(C)C)c3)nc2n1 [Compound 177, 1-Ethyl-3-[6-(3-isopropoxy-phenyl)-pyrido[2,3-b]pyrazin-3-yl]-urea]"
16,227 to 228 °C,"CCNC(=O)Nc1cnc2ccc(-c3ccc(C)cc3)nc2n1 [Compound 178, 1-Ethyl-3-(6-p-tolyl-pyrido[2,3-b]pyrazin-3-yl)-urea]"
17,> 320 °C,"CCNC(=O)Nc1cnc2ccc(-c3cccc(N)c3)nc2n1 [Compound 179, 1-[6-(3-Amino-phenyl)-pyrido[2,3-b]pyrazin-3-yl]-3-ethyl-urea]"
